This passage reports IC50 and inhibition results from patent US9567302B2, “Carbamate compounds and of making and using same” (Abide Therapeutics, Inc., priority 2012, dated 2017).

Where only a bound is given, the exact number is not on record here.

For assay [1], the target named is T1, hMAGL (Homo sapiens, UniProt Q99685).
T1 construct: expressed in transfected cells; host or cells: HEK293T
T1 sequence (Q99685 1-303): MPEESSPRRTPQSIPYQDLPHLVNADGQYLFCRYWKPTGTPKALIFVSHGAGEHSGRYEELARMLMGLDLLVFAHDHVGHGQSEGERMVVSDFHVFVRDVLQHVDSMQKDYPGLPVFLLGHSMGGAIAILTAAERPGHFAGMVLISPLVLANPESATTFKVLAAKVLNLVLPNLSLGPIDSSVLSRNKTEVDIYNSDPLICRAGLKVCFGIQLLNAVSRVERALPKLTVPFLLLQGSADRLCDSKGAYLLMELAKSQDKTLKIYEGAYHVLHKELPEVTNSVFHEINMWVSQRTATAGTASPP
As to the kind of experiment: Competitive ABPP with human MAGL recombinantly expressed in HEK293T cells. In kind it is biochemical. The conditions noted are these: Table 1; hMAGL-HEK293T cell lysates. How it is done:
(§1) Proteomes (mouse brain membrane fraction or cell lysates) (50 μL, 1.0 mg/ml total protein concentration) were preincubated with varying concentrations of inhibitors at 37° C. After 30 min, FP-Rh (1.0 μL, 50 μM in DMSO) was added and the mixture was incubated for another 30 min at 37° C. Reactions were quenched with SDS loading buffer (50 μL—4×) and run on SDS-PAGE.
Recombinant Expression of Human MAGL in HEK293T Cells.
Cell lysates were diluted with mock proteomes for use in competitive ABPP experiments.

For assay [2], the target named is T2, MAGL (Mus musculus, UniProt O35678).
T2 sequence (O35678 1-303): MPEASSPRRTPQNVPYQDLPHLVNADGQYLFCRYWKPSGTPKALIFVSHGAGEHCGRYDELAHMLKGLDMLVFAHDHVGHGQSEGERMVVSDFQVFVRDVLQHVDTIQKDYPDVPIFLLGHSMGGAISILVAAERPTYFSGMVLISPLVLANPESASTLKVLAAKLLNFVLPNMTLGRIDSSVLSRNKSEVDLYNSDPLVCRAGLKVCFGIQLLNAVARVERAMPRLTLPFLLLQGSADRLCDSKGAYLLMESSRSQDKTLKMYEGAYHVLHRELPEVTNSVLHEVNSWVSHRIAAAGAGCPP
As to the kind of experiment: In vitro competitive activity-based protein profiling (FP-Rh), mouse MAGL. It is filed as biochemical. More on the design: from tissue; host or cells: mouse brain membrane fraction. The conditions noted are these: 30 min preincubation at 37° C. How it is done:
(§2) In Vitro Competitive Activity-Based Protein Profiling.
as §1

Assay [3] has as its target T3, FAAH (Mus musculus, UniProt O08914).
T3 sequence (O08914 1-579): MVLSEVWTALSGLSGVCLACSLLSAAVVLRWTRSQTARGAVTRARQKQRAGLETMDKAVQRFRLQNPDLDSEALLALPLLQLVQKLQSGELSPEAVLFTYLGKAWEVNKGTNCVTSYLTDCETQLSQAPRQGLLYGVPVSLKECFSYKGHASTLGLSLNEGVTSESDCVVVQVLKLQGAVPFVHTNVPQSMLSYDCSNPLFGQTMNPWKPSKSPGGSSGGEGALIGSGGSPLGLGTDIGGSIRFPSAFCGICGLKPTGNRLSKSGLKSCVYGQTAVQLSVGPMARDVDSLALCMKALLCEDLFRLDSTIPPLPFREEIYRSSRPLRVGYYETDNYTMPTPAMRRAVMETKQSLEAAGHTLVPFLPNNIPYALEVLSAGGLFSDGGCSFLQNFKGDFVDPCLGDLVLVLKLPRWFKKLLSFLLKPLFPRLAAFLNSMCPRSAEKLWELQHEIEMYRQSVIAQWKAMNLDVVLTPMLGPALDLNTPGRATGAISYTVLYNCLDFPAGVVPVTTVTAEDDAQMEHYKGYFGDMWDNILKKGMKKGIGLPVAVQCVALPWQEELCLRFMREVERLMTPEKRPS
In words: In vitro competitive activity-based protein profiling (FP-Rh), mouse FAAH. The conditions noted are these: 30 min preincubation at 37° C. More on the design: from tissue; host or cells: mouse brain membrane fraction. In kind it is biochemical. How it is done: as §2, §1

Assay [4] deals with T4, ABHD6 (Mus musculus, UniProt Q8R2Y0).
T4 sequence (Q8R2Y0 1-336): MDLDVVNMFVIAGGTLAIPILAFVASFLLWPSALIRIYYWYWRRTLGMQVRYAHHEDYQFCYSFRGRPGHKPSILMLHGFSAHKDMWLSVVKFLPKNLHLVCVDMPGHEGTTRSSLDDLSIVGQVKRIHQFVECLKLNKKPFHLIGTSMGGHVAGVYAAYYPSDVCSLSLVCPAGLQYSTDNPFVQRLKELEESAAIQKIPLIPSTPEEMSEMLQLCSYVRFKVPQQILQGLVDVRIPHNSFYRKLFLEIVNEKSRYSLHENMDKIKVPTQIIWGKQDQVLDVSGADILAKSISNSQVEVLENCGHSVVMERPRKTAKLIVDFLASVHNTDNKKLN
In words: In vitro competitive activity-based protein profiling (FP-Rh), mouse ABHD6. More on the design: from tissue; host or cells: mouse brain membrane fraction. In kind it is biochemical. The note with it: 30 min preincubation at 37° C. How it is done:
as §2, §1

Assay [5] has as its target T2, MAGL. As to the kind of experiment: Mouse brain MAGL inhibition in proteomes from inhibitor treated mice (oral gavage). It is filed as in vivo. More on the design: from tissue; host or cells: mouse brain membrane fraction. The conditions noted are these: p.o., C57Bl/6J mice, brain proteome 4 h following administration. How it is done:
as §1
Preparation of Mouse Brain Proteomes from Inhibitor Treated Mice.
Inhibitors were administered to wild-type C57B1/6J by oral gavage in a vehicle of polyethylene glycol.

Take `O=C(ON1C(=O)CCC1=O)N1CCC(C(O)(c2ccc3c(c2)OCO3)c2ccc3c(c2)OCO3)CC1` [Example 1, 2,5-Dioxopyrrolidin-1-yl 4-(bis(benzo[d][1,3]dioxol-5 yl)(hydroxy)methyl)piperidine-1-carboxylate]: the IC50 in assay [1] is less than 100 nM; in assay [2] (Table 1, mouse proteome), less than 100 nM; in assay [3] (Table 1, mouse proteome), greater than 10000 nM; in assay [4] (Table 1, mouse proteome), 100 to 1000 nM. Besides, the inhibition at 20 mg/kg in assay [5] came out at 75%.
Regarding `O=C(ON1C(=O)CCC1=O)N1CCN(C(c2ccc(Br)cc2)c2ccc(Br)cc2)CC1` [Example 3, 2,5-Dioxopyrrolidin-1-yl 4-[bis(4-bromophenyl)methyl]piperazine-1-carboxylate], the IC50 in assay [1] is less than 100 nM; in assay [2] (Table 1, mouse proteome), less than 100 nM; in assay [3] (Table 1, mouse proteome), greater than 10000 nM; in assay [4] (Table 1, mouse proteome) it was 100 to 1000 nM. The same compound showed an inhibition at 20 mg/kg in assay [5] greater than 95%.
In the case of `O=C(CN1CCN(C(=O)ON2C(=O)CCC2=O)CC1)Nc1cc(C(F)(F)F)ccc1Cl` [Example 36, 2,5-Dioxopyrrolidin-1-yl 4-(2-((2-chloro-5-(trifluoromethyl)phenyl)amino)-2-oxoethyl)piperazine-1-carboxylate], the IC50 is less than 100 nM in assay [1]; less than 100 nM in assay [2] (Table 1, mouse proteome); 1000 to 10000 nM in assay [3] (Table 1, mouse proteome); 1000 to 10000 nM in assay [4] (Table 1, mouse proteome).
Turning to `O=C(ON1C(=O)CCC1=O)N1CCN(Cc2ccc(Br)cc2Oc2ccccc2)CC1` [Example 37, 2,5-Dioxopyrrolidin-1-yl 4-[(4-bromo-2-phenoxyphenyl)methyl]piperazine-1-carboxylate], the IC50 in assay [1] is less than 100 nM; in assay [2] (Table 1, mouse proteome) it was less than 100 nM; in assay [3] (Table 1, mouse proteome) it was 1000 to 10000 nM; in assay [4] (Table 1, mouse proteome), 100 to 1000 nM.
As for `CC1CC(=O)N(OC(=O)N2CCN(C(c3ccc(Cl)cc3)c3ccc(Cl)cc3)CC2)C1=O` (stereo not shown) [Example 41, 3-Methyl-2,5-dioxopyrrolidin-1-yl 4-(bis(4-chlorophenyl)methyl)piperazine-1-carboxylate], the IC50 is less than 100 nM in assay [2] (Table 1, mouse proteome); greater than 10000 nM in assay [3] (Table 1, mouse proteome); 100 to 1000 nM in assay [4] (Table 1, mouse proteome). The compound also yielded an inhibition at 20 mg/kg in assay [5] greater than 95%.
For `O=C(ON1C(=O)CNC1=O)N1CCN(C(c2ccc(Cl)cc2)c2ccc(Cl)cc2)CC1` [Example 46, 2,5-Dioxoimidazolidin-1-yl 4-(bis(4-chlorophenyl)methyl)piperazine-1-carboxylate], the IC50 in assay [2] (Table 1, mouse proteome) is less than 100 nM; in assay [3] (Table 1, mouse proteome), greater than 10000 nM; in assay [4] (Table 1, mouse proteome), 100 to 1000 nM. The inhibition at 20 mg/kg in assay [5] was greater than 95%.
On to `O=C(ON1C(=O)CCC1=O)N1CCN(Cc2ccc(C(F)(F)F)cc2N2CCCC2)CC1` [Example 105, 2,5-Dioxopyrrolidin-1-yl 4-{[2-(pyrrolidin-1-yl)-4-(trifluoromethyl)phenyl]methyl}piperazine-1-carboxylate], for which the IC50 in assay [2] (Table 2, mouse proteome) was less than 100 nM; in assay [3] (Table 2, mouse proteome), greater than 10000 nM; in assay [4] (Table 2, mouse proteome), 1000 to 10000 nM. In assay [5], the inhibition at 5 mg/kg is 75%.
For `Cc1c(CN2CCN(C(=O)ON3C(=O)CCC3=O)CC2)cccc1N1CCCCC1` [Example 122, 2,5-Dioxopyrrolidin-1-yl 4-(2-methyl-3-(piperidin-1-yl)benzyl)piperazine-1-carboxylate] the same measures were less than 100 nM, greater than 10000 nM, 100 to 1000 nM and 100%.

In general, IC50 refers to the midpoint of a concentration-inhibition curve. One may read the inhibition as the drop in the measured response relative to a control, in per cent.
